Laboratory results from patent publication US20120252773A1, “Method and composition for inhibiting cell proliferation and angiogenesis” (priority 2005, published 2012).

Key:
[1] = tested on: HIF-1α protein in PC-3 prostate cancer cells; assay: HIF-1α protein expression by immunoblotting, PC-3 cells; format: cell-based, human; conditions: 6 h
Experimental: Hypoxia experiments were performed in either of two ways. To produce a very low ambient oxygen concentration (effectively anoxia), we used a protocol in which cells were incubated in a 5% CO2-air atmosphere at 37° C. overnight and then placed in aluminum gas-exchange chambers maintained at 37° C. (Laderoute K R et al. Mol Cell Biol 22: 2515-2523, (2002); Laderoute K R et al. Mol Cell Biol 24: 4128-4137, (2004)). The chambers containing the cells were then placed in a 37° C. circulating water bath and the original atmosphere was repeatedly exchanged with 5% CO2-95% N2 using a manifold equipped with a vacuum pump and a gas cylinder. Atmospheric oxygen partial pressure (pO2) values of less than or equal to 0.01% (relative to air at pO2 of about 21%) can be achieved inside the chambers using this system. Following various hypoxic exposures, the chambers were opened an anaerobic glove box (Bactron X, Sheldon Manufacturing Inc., Cornelius, Oreg.; attached to a cylinder containing 5% CO2-95% N2) to prepare cell lysates without significant reoxygenation. All manipulations of hypoxic cells were performed in the anaerobic glove box. Atmospheric oxygen levels in both the chambers and the glove box have been measured and calibrated using a polarographic oxygen electrode (Oxygen Sensors, Inc., Norristown, Pa.). Hypoxia experiments involving a pO2 of 1% were performed by equilibrating the glove box with an atmosphere of 1% O2 5% CO2 […] held at 37° C. with a circulating fan. Cells were incubated inside a humidified space in the glove box and the medium on the cells was gently and continually agitated by using a rotary shaker. For these experiments, we used RAW 264.7 immortalized mouse macrophages as normal control cells, PC-3 prostate cancer cells, and MDA-MB-231 breast cancer cells, all available from ATCC.
We used immunoblotting to evaluate the experiments. Nuclear lysates were used to detect HIF-1α protein by immunoblotting (Murphy B J et al. Biochem Biophys Res Commun (In Press): 2005). Briefly, cells were placed on ice in air or on Super Ice® cold packs in the anaerobic glove box and the medium was removed. […] After spinning at 9,000×g for 5 min at 4° C., the protein concentrations of the supernatants were determined by using a bicinchoninic acid assay (Pierce Biotechnology). […] Primary antibody binding was detected and visualized by using the ECL Plus Western Blotting Detection System (Amersham Pharmacia Biotech) according to the supplier's instructions. HIF-1α protein was detected by using an anti-HIF-1α monoclonal antibody (Novus Biologicals, Cat. No. NB100-123; diluted 1:500) and a horseradish peroxidase-conjugated anti-mouse IgG secondary antibody (Santa Cruz Biotechnology, Cat. No. sc-2062; diluted 1:20,000). […]

[2] = tested on: human endometrial Ishikawa cells; assay: Estrogenic activity, alkaline phosphatase, Ishikawa cell-based assay; conditions: 72 hours
Experimental: Ishikawa cell based assays were run in parallel on human endometrial Ishikawa cells treated with compound (2) or with 2-methoxyestradiol. 2-Methoxyestradiol is a compound reported in the literature as an anti-angiogenic agent. Cells were cultured in 96-well plates for 48 hours in estrogen- and phenol red-free medium (DMEM/Hamm's F12 medium) containing 5% fetal bovine serum stripped of endogenous estrogens with dextran coated charcoal (Sigma). Compound (2) or other test compounds were then added to the cells and culturing was continued for an additional 72 hours. To the control cells (no (2)), 10^−9 M of […] was added. At the end of 72 hours, alkaline phosphatase activity was measured by adding 5 mM p-nitrophenyl phosphate, 0.24 mM MgCl2, and 1 M diethanolamine (pH 9.8) to the cells while the 96-well plates were kept on ice. The plates were then warmed to room temperature, and the yellow color from the production of p-nitrophenol was measured after 2-3 hours using an ELISA plate reader at a wavelength of 405 nm. The estrogenic activity was defined as the alkaline phosphatase activity stimulated by the test compounds alone as a percentage of that stimulated by estradiol at 10^−9 M. Stimulation by estradiol at 10^−9 M was taken as 100%.

[3] = tested on: HIF-1α protein in RAW 264.7 immortalized mouse macrophages; assay: HIF-1α protein expression by immunoblotting, RAW 264.7 macrophages; format: cell-based; conditions: RAW 264.7 macrophages (normal cell line)
Experimental: Hypoxia experiments were performed in either of two ways. To produce a very low ambient oxygen concentration (effectively anoxia), we used a protocol in which cells were incubated in a 5% CO2-air atmosphere at 37° C. overnight and then placed in aluminum gas-exchange chambers maintained at 37° C. (Laderoute K R et al. Mol Cell Biol 22: 2515-2523, (2002); Laderoute K R et al. Mol Cell Biol 24: 4128-4137, (2004)). The chambers containing the cells were then placed in a 37° C. circulating water bath and the original atmosphere was repeatedly exchanged with 5% CO2-95% N2 using a manifold equipped with a vacuum pump and a gas cylinder. Atmospheric oxygen partial pressure (pO2) values of less than or equal to 0.01% (relative to air at pO2 of about 21%) can be achieved inside the chambers using this system. […] Atmospheric oxygen levels in both the chambers and the glove box have been measured and calibrated using a polarographic oxygen electrode (Oxygen Sensors, Inc., Norristown, Pa.). […]
We used immunoblotting to evaluate the experiments. […] After spinning at 9,000×g for 5 min at 4° C., the protein concentrations of the supernatants were determined by using a bicinchoninic acid assay (Pierce Biotechnology). […] Primary antibody binding was detected and visualized by using the ECL Plus Western Blotting Detection System (Amersham Pharmacia Biotech) according to the supplier's instructions. […]

[4] = tested on: DU-145 Human Androgen-Independent Prostate Cancer Cells; assay: Apoptosis by TUNEL assay in DU-145 cells; format: cell-based; conditions: DU-145, 10 μM, 24 hours
Experimental: DU-145 cells (ATCC) were treated with 10 μM (2) for 24 hours. Apoptosis was measured by the terminal deoxynucleotidyl transferase mediated dUTP nick end labeling (TUNEL) assay. This assay was conducted using the Apoptosis Detection Kit (Promega, Madison, Wis.) following the instructions provided by the manufacturer. Briefly, DU-145 cells were incubated with (2) for 24, 48, or 72 hours. At the end of incubation, cells were fixed with freshly prepared 4% methanol-free paraformaldehyde in PBS, washed, and then permeabilized in 0.2% Triton X-100 in PBS. The cells on the slides were then incubated with Tdt enzyme for 1 h at 37° C., stained with propidium iodide, and examined under a fluorescence microscope. Fragmented DNA was made visible with green fluorescence stain within the apoptotic cells.

## C[C@@H]1Cc2cc(O)ccc2C2CCC3(C)/C(=C/COCCN(C)C)CCC3C21 (stereo partly drawn) [Compound (2), (E)-3-Hydroxy-7α-methyl-21-[(2-dimethylamino)ethoxy]-19-norpregna-1,3,5(10),17(20)-tetraene]
[1]; PC-3, anoxic, hypoxic and normoxic conditions, less than or equal to 5 μM
  HIF-1α protein expression: potent inhibitory effect
[1]; PC-3, less than or equal to 5 μM
  cytotoxicity toward PC-3 cells: without obvious cytotoxicity
[2]
  estrogenic activity (alkaline phosphatase stimulation relative to estradiol at 10^−9 M): essentially no such activity
[3]
  HIF-1α protein expression: did not influence
[4]
  apoptosis, fragmented DNA (TUNEL): quite a few pieces of fragmented DNA were evident
